In patent publication US12612360B2 (Sanofi, priority 2020, dated 2026):

Biological target: T1, ERα (Homo sapiens, UniProt P03372)
T1 construct: host or cells: MCF7
T1 sequence (P03372 1-595): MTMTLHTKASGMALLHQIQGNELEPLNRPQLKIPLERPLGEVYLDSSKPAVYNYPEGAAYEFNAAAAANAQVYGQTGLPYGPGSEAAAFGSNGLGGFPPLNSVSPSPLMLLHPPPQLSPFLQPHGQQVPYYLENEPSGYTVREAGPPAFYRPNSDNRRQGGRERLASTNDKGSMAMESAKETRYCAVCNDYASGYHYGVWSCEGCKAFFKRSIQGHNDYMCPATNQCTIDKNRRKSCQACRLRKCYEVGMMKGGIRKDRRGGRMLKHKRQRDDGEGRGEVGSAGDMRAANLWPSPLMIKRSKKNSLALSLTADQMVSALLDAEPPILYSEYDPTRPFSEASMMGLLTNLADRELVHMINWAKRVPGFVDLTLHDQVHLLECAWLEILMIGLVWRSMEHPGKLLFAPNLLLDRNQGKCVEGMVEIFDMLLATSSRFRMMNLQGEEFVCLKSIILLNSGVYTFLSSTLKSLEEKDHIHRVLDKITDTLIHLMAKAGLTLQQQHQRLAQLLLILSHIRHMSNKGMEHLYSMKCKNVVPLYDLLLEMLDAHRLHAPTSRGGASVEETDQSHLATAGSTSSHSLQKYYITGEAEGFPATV
Test: Estrogen receptor degradation activity: breast cancer cell ERα in cell western assay (MCF7 cells)
Assay type: cell-based
Details: for % Degradation At 0.3 μM: 4 hours, relative to fulvestrant 0.1 μM positive control; for DC50: 4 hours post compound addition, concentration which degrades 50% of the estrogen receptor, read-out: Degradation IC50
Procedure, shortened: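 In-cell western readout: ERα immunofluorescence (Alexa 488) normalised to DNA signal (Syto-64) after formalin fixation. Compounds dosed for 4 h on MCF7 cells in stripped-serum, phenol-red-free medium over nine 1:5 steps, 0.3 to […] final; fulvestrant 0.1 μM control. IC50 in nM for 50% ERα degradation.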

| SMILES | % Degradation At 0.3 μM | DC50 |
| --- | --- | --- |
| FCCCN1CC(=Cc2ccc(C3=C(c4ccccc4Cl)CCCc4ccccc43)cc2)C1 [Example 120, 3-(4-(8-(2-chlorophenyl)-6,7-dihydro-5H-benzo[7]annulen-9-yl)benzylidene)-1-(3-fluoropropyl)azetidine] | 98% | 2680 pM |
| Cc1cc(C(F)(F)F)ccc1C1=C(c2ccc(C=C3CN(CCC(F)(F)F)C3)cc2)c2ccc(C(=O)O)cc2CCC1 [Example 113, 8-(2-methyl-4-(trifluoromethyl)phenyl)-9-(4-((1-(3,3,3-trifluoropropyl)azetidin-3-ylidene)methyl)phenyl)-6,7-dihydro-5H-benzo[7]annulene-3-carboxylic acid] | 90% | 300 pM |
| Cc1cc(F)ccc1C1=C(c2ccc(C=C3CN(CCCF)C3)c(F)c2F)c2ccc(C(=O)O)cc2CCC1 [Example 152, 9-(2,3-difluoro-4-((1-(3-fluoropropyl)azetidin-3-ylidene)methyl)phenyl)-8-(4-fluoro-2-methylphenyl)-6,7-dihydro-5H-benzo[7]annulene-3-carboxylic acid] | 93% | 200 pM |
| Cc1cc(F)ccc1C1=C(c2ccc(C=C3CN(CCCF)C3)cc2C#N)c2ccc(C(=O)O)cc2CCC1 [Example 139, 9-(2-cyano-4-((1-(3-fluoropropyl)azetidin-3-ylidene)methyl)phenyl)-8-(4-fluoro-2-methylphenyl)-6,7-dihydro-5H-benzo[7]annulene-3-carboxylic acid] | 97% | 3100 pM |
| O=C(O)c1ccc2c(c1)CCCC(c1cccc(F)c1F)=C2c1ccc(C=C2CN(CCCF)C2)cc1 [Example 55, 8-(2,3-difluorophenyl)-9-(4-((1-(3-fluoropropyl)azetidin-3-ylidene)methyl)phenyl)-6,7-dihydro-5H-benzo[7]annulene-3-carboxylic acid] | 94% | 1000 pM |
| Cc1c(C2=C(c3ccc(C=C4CN(CCC(F)F)C4)cc3)c3ccc(C(=O)O)cc3CCC2)cccc1C(F)(F)F [Example 134, 9-(4-((1-(3,3-difluoropropyl)azetidin-3-ylidene)methyl)phenyl)-8-(2-methyl-3-(trifluoromethyl)phenyl)-6,7-dihydro-5H-benzo[7]annulene-3-carboxylic acid] | 93% | 1100 pM |
| Cl.O=C(O)c1ccc2c(c1)CCCC(c1ccc(Cl)cc1Cl)=C2c1cc(F)c(C=C2CN(CCCF)C2)cc1F [Example 92, 8-(2,4-dichlorophenyl)-9-(2,5-difluoro-4-((1-(3-fluoropropyl)azetidin-3-ylidene)methyl)phenyl)-6,7-dihydro-5H-benzo[7]annulene-3-carboxylic acid hydrochloride] | 98% | 300 pM |
| O=C(O)c1ccc2c(c1)CCCC(c1cccc(C(F)(F)F)c1Cl)=C2c1ccc(C=C2CN(CCC(F)F)C2)cc1 [Example 133, 8-(2-chloro-3-(trifluoromethyl)phenyl)-9-(4-((1-(3,3-difluoropropyl)azetidin-3-ylidene)methyl)phenyl)-6,7-dihydro-5H-benzo[7]annulene-3-carboxylic acid] | 92% | 1000 pM |
| Cc1c(C2=C(c3ccc(F)cc3F)CCCc3cc(C(=O)O)ccc32)ccc(C=C2CN(CCCF)C2)c1F.Cl [Example 17, 8-(2,4-difluorophenyl)-9-(3-fluoro-4-((1-(3-fluoropropyl)azetidin-3-ylidene)methyl)-2-methylphenyl)-6,7-dihydro-5H-benzo[7]annulene-3-carboxylic acid hydrochloride] | 89% | 500 pM |
| O=C(O)c1ccc2c(c1)CCCC(c1ccc3c(c1F)CCC3)=C2c1ccc(C=C2CN(CCCF)C2)cc1 [Example 7, 8-(4-fluoro-2,3-dihydro-1H-inden-5-yl)-9-(4-((1-(3-fluoropropyl)azetidin-3-ylidene)methyl)phenyl)-6,7-dihydro-5H-benzo[7]annulene-3-carboxylic acid] | 90% | 600 pM |
| O=C(O)c1ccc2c(c1)CCCC(c1ccc(F)cc1C(F)(F)F)=C2c1ccc(C=C2CN(CCC(F)F)C2)cc1 [Example 25, 9-(4-((1-(3,3-difluoropropyl)azetidin-3-ylidene)methyl)phenyl)-8-(4-fluoro-2-(trifluoromethyl)phenyl)-6,7-dihydro-5H-benzo[7]annulene-3-carboxylic acid] | 92% | 500 pM |
| Cc1cc(F)cc(C)c1C1=C(c2ccc(C=C3CN(CCCF)C3)cc2)c2ccc(C(=O)O)cc2CCC1 [Example 90, 8-(4-fluoro-2,6-dimethylphenyl)-9-(4-((1-(3-fluoropropyl)azetidin-3-ylidene)methyl)phenyl)-6,7-dihydro-5H-benzo[7]annulene-3-carboxylic acid] | 93% | 200 pM |
| O=C(O)c1ccc2c(c1)CCCC(c1cccc(F)c1Cl)=C2c1ccc(C=C2CN(CCCF)C2)cc1 [Example 78, 8-(2-chloro-3-fluorophenyl)-9-(4-((1-(3-fluoropropyl)azetidin-3-ylidene)methyl)phenyl)-6,7-dihydro-5H-benzo[7]annulene-3-carboxylic acid] | 93% | 600 pM |
| Cc1ccc(C2=C(c3ccc(C=C4CN(CCCF)C4)cc3)c3ccc(C(=O)O)cc3CCC2)c(F)c1 [Example 57, 8-(2-fluoro-4-methylphenyl)-9-(4-((1-(3-fluoropropyl)azetidin-3-ylidene)methyl)phenyl)-6,7-dihydro-5H-benzo[7]annulene-3-carboxylic acid] | 93% | 200 pM |
| Cc1cc(C2=C(c3ccc(F)cc3C)CCCc3cc(C(=O)O)ccc32)ccc1C=C1CN(CCCF)C1.Cl [Example 44, 8-(4-fluoro-2-methylphenyl)-9-(4-((1-(3-fluoropropyl)azetidin-3-ylidene)methyl)-3-methylphenyl)-6,7-dihydro-5H-benzo[7]annulene-3-carboxylic acid hydrochloride] | 91% | 400 pM |
| O=C(O)c1ccc2c(c1)CCCC(c1ccc(F)cc1F)=C2c1c(F)cc(C=C2CN(CCCF)C2)cc1F [Example 52, 9-(2,6-difluoro-4-((1-(3-fluoropropyl)azetidin-3-ylidene)methyl)phenyl)-8-(2,4-difluorophenyl)-6,7-dihydro-5H-benzo[7]annulene-3-carboxylic acid] | 97% | 300 pM |
| CC1(C)CCCC(C2=C(c3ccc(C=C4CN(CCCF)C4)cc3)c3ccc(C(=O)O)cc3CCC2)C1 (single isomer, unassigned) [Example 171, 8-(3,3-dimethylcyclohexyl)-9-(4-((1-(3-fluoropropyl)azetidin-3-ylidene)methyl)phenyl)-6,7-dihydro-5H-benzo[7]annulene-3-carboxylic acid] | 88% | 400 pM |
| Cl.O=C(O)c1ccc2c(c1)CCC(c1ccc(Cl)cc1Cl)=C2c1ccc(C=C2CN(CCCF)C2)cc1 [Example 106, 6-(2,4-dichlorophenyl)-5-(4-((1-(3-fluoropropyl)azetidin-3-ylidene)methyl)phenyl)-7,8-dihydronaphthalene-2-carboxylic acid hydrochloride] | 93% | 1000 pM |
| CC1CCc2cc(C(=O)O)ccc2C(c2ccc(C=C3CN(CCCF)C3)cc2)=C1c1ccc(Cl)cc1Cl (racemic) [Example 166, 8-(2,4-Dichlorophenyl)-9-(4-((1-(3-fluoropropyl)azetidin-3-ylidene)methyl)phenyl)-7-methyl-6,7-dihydro-5H-benzo[7]annulene-3-carboxylic acid, racemic mixture] | 95% | 600 pM |
| Cc1cc(F)ccc1C1=C(c2cc(C)c(C=C3CN(CCCF)C3)c(F)c2)c2ccc(C(=O)O)cc2CCC1 [Example 28, 8-(4-fluoro-2-methylphenyl)-9-(3-fluoro-4-((1-(3-fluoropropyl)azetidin-3-ylidene)methyl)-5-methylphenyl)-6,7-dihydro-5H-benzo[7]annulene-3-carboxylic acid] | 90% | 1000 pM |
| Cc1c(C2=C(c3ccc(C=C4CN(CCCF)C4)cc3)c3ccc(C(=O)O)cc3CCC2)ccc(Cl)c1F [Example 81, 8-(4-chloro-3-fluoro-2-methylphenyl)-9-(4-((1-(3-fluoropropyl)azetidin-3-ylidene)methyl)phenyl)-6,7-dihydro-5H-benzo[7]annulene-3-carboxylic acid] | 98% | 400 pM |
| CC1CCc2cc(C(=O)O)ccc2C(c2ccc(C=C3CN(CCCF)C3)cc2)=C1c1ccc(Cl)cc1 (single isomer, unassigned) [Example 179, 8-(4-chlorophenyl)-9-(4-((1-(3-fluoropropyl)azetidin-3-ylidene)methyl)phenyl)-7-methyl-6,7-dihydro-5H-benzo[7]annulene-3-carboxylic acid] | 91% | 1400 pM |
